Measured values published in patent publication US20080102497A1, “ENZYMATIC HYDROLYSIS OF STARCH” (priority 2006, published 2008).
Values joined by “and” are separate entries in the source; they are usually repeats but may differ in a detail not shown here. Equal values may be shown once. Read-outs that look alike come from different tables or passages of the source.

Assays:
[1] = biological target: α-amylase from Bacillus licheniformis (Bacillus licheniformis, UniProt P06278); assay: hydrolysis of cooked dent corn starch with other additives; assay type: biochemical; details: for effect on rate of enzymatic hydrolysis (in words): 10 mM additive, cooked dent corn starch; for Relative Activity: cooked dent corn starch 0.5%, pH 5.2, 37° C., 10 min
Experimental: The α-amylase from Bacillus licheniformis was added to a sodium acetate buffer solution, pH 5.2, […], di-sodium EDTA, NH4^+, Sr^++, Na^+, K^+, Al^+++, or Ba^++ and 0.5% by weight cooked dent corn starch. The separate reaction mixtures were incubated at 37° C. for 10 minutes. The control reaction mixture contained enzyme, buffer, and starch but no additive. The starch hydrolysis reaction was stopped by combining the reaction mixture with a solution containing DNSA and heating for 30 min at 85° C. The absorbance of the control and test samples was measured at 562 nm to monitor the amount of reducing sugar in each sample.

β-amylase from barley = β-amylase from barley (Hordeum vulgare, UniProt P16098); assay: as above; assay type: biochemical; details: for effect on rate of enzymatic hydrolysis (in words): 10 mM additive, cooked dent corn starch; for Relative Activity: cooked dent corn starch 0.5%, pH 5.2, 37° C., 10 min
Experimental: […] The separate reaction mixtures were incubated at 37° C. for 10 minutes. The control reaction mixture contained enzyme, buffer, and starch but no additive. The starch hydrolysis reaction was stopped by combining the reaction mixture with a solution containing DNSA and heating for 30 min at 85° C. The absorbance of the control and test samples was measured at […] to monitor the amount of reducing sugar in each sample.

[2] = biological target: glucoamylase from Aspergillus Niger (Aspergillus niger, UniProt P69328); assay: as above; assay type: biochemical; details: for effect on rate of enzymatic hydrolysis (in words): 10 mM additive, cooked dent corn starch; for Relative Activity: cooked dent corn starch 0.5%, pH 5.2, 37° C., 10 min
Experimental: The glucoamylase from Aspergillus Niger was added to a sodium acetate buffer solution, pH 5.2, comprising no metal or 10 mM Fe^++, Mg^++, Li^+, Zn^++, Cu^++, Ca^++, di-sodium EDTA, NH4^+, Sr^++, Na^+, K^+, Al^+++, or Ba^++ and 0.5% by weight cooked dent corn starch. The separate reaction mixtures were incubated at 37° C. for 10 minutes. The control reaction mixture contained enzyme, buffer, and starch but no additive. The starch hydrolysis reaction was stopped by combining the reaction mixture with a solution containing DNSA and heating for 30 min at 85° C. The absorbance of the control and test samples was measured at 562 nm to monitor the amount of reducing sugar in each sample.

[3] = system: enzyme mixture of purified glucoamylase from mushroom and purified α-amylase from barley; assay: hydrolysis of raw corn starch by enzyme mixture, reducing sugar by DNSA; assay type: biochemical; details: for Relative Activity: 10 mM additive, raw corn starch, pH 5.3, 37° C., 20 min; for effect on hydrolysis of raw corn starch (in words): summary of Table 2
Experimental: Enzyme mixture was also pre-incubated with 10 mM Fe^++, Cu^++, Ca^++, Mg^++, or disodium ethylenediamine-tetraacetic acid (EDTA). Thereafter, 40 μl of each pre-incubation solution was added to 15 mg raw corn starch, and the reaction mixture incubated at 37° C. for 20 minutes. The control reaction mixture contained substrate, enzyme, and buffer but no additional metal ions. The starch hydrolysis reaction was stopped by combining the reaction mixture with a solution containing 3,5 dinitrosalicylic acid (DNSA) and heating for 30 min at 85° C. The absorbance of the control and test samples was measured at 562 nm to monitor the amount of reducing sugar in each sample.

[4] = system: glucoamylase from Rhizopus sp.; details: 1.0 mM manganese salt, raw corn starch, pH 5.3, 37° C.
Experimental: An enzyme solution of the glucoamylase from Rhizopus sp. Was prepared in a sodium acetate buffer, pH 5.3, comprising 1.0 mM manganese chloride, manganese acetate, or manganese sulfate. Thereafter, 40 μl of each enzyme solution was added to 15 mg raw corn starch and the reaction mixtures incubated at 37° C. for 5, 10, 15, 20, or 25 minutes. The starch hydrolysis reaction was stopped by combining the reaction mixture with a solution containing DNSA and heating for 30 min at 85° C. The absorbance of the control and test samples was measured at 562 nm to monitor the amount of reducing sugar in each sample.

Chain of α-amylase from Bacillus licheniformis (P06278 30-512): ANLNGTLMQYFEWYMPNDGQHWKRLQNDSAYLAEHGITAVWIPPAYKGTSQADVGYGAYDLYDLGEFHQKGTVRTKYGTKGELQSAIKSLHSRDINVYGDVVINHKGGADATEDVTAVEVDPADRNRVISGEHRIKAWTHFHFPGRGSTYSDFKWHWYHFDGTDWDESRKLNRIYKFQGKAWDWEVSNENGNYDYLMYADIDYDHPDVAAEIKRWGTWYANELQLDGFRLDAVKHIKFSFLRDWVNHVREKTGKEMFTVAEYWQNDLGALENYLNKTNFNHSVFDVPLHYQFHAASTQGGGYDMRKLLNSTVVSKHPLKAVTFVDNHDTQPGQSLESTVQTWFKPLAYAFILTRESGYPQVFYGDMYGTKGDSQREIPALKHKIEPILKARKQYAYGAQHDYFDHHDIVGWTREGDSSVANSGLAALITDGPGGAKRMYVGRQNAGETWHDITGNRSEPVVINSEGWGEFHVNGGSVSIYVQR
Chain of β-amylase from barley (P16098 whole entry): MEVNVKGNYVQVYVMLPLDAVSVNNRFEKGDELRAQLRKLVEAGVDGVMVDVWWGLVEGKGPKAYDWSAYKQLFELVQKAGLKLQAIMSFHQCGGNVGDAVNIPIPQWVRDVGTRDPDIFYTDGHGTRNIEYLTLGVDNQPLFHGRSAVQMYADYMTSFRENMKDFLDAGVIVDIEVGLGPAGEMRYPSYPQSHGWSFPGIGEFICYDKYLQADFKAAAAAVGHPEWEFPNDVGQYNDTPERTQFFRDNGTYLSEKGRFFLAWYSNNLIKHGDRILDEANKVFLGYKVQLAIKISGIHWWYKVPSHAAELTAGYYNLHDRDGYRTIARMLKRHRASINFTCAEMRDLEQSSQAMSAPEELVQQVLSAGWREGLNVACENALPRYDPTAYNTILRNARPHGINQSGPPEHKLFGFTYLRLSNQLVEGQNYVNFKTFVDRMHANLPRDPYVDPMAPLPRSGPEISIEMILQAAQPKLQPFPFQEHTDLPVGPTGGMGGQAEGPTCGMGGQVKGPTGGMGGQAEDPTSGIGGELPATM
Chain of glucoamylase from Aspergillus Niger (P69328 25-640): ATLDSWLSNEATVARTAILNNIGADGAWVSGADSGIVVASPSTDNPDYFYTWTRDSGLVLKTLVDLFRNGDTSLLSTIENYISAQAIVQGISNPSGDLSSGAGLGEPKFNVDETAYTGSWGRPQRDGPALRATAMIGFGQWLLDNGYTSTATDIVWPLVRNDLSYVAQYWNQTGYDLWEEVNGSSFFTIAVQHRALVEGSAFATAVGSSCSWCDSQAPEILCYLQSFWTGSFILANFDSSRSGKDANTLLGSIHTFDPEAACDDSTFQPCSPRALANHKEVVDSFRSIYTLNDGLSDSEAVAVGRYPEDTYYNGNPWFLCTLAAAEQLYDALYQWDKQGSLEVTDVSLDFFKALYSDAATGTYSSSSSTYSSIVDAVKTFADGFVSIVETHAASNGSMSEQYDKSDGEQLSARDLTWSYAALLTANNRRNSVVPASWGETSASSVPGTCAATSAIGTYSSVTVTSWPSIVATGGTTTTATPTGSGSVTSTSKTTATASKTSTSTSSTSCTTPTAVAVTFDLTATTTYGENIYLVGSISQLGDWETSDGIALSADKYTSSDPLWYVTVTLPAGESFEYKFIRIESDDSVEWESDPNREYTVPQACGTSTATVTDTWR

Molecule | effect on rate of enzymatic hydrolysis (in words) [1] | Relative Activity ([1]; Additive (10 mM)) | effect on rate of enzymatic hydrolysis (in words) (β-amylase from barley) | Relative Activity (β-amylase from barley; Additive (10 mM)) | effect on rate of enzymatic hydrolysis (in words) [2] | Relative Activity ([2]; Additive (10 mM)) | Relative Activity [3] [%] | effect on hydrolysis of raw corn starch (in words) [3] | % Conversion ([4]; 5 minutes) [%] | % Conversion ([4]; 10 minutes) [%] | % Conversion ([4]; 15 minutes) [%] | % Conversion ([4]; 20 minutes) [%] | % Conversion ([4]; 25 minutes) [%] | % Conversion ([4]; time 0) [%] | Relative Activity ([1]; additive 1 mM) [%] | Relative Activity (β-amylase from barley; additive 1 mM) | Relative Activity ([2]; additive 1 mM) [%]
N [NH4^+] | does not increase the enzymatic rate of hydrolysis | 86.4% | do not significantly increase the rate of enzymatic hydrolysis | 95.1% | do not significantly increase the rate of enzymatic hydrolysis | 98.3% | – | – | – | – | – | – | – | – | – | – | –
[Ba+2] [Ba^++, barium ion] | does not increase the enzymatic rate of hydrolysis | 98.1% | increase the rate of enzymatic hydrolysis | 114.6% | do not significantly increase the rate of enzymatic hydrolysis | 99.3% | – | – | – | – | – | – | – | – | – | – | –
[Mg+2] [Mg^++, magnesium ion] | does not increase the enzymatic rate of hydrolysis | 83.8% | increase the rate of enzymatic hydrolysis | 110.8% | do not significantly increase the rate of enzymatic hydrolysis | 96.0% | 92.4 | do not have a similar effect | – | – | – | – | – | – | – | – | –
[Cu+2] [Cu^++] | does not increase the enzymatic rate of hydrolysis | 30.0% | do not significantly increase the rate of enzymatic hydrolysis | 6.7% | do not significantly increase the rate of enzymatic hydrolysis | 33.9% | 47.5 | do not have a similar effect | – | – | – | – | – | – | – | – | –
O=C(O)CN(CCN(CC(=O)O)CC(=O)O)CC(=O)O.[Na].[Na] [Disodium EDTA, disodium ethylenediamine-tetraacetic acid] | does not increase the enzymatic rate of hydrolysis | 103.8% | do not significantly increase the rate of enzymatic hydrolysis | 100.4% | do not significantly increase the rate of enzymatic hydrolysis | 57.6% | 88.8 | do not have a similar effect | – | – | – | – | – | – | – | – | –
[Li+] [Li^+, lithium ion] | does not increase the enzymatic rate of hydrolysis | 89.2% | do not significantly increase the rate of enzymatic hydrolysis | 101.6% | increase the rate of enzymatic hydrolysis | 118.1% | – | – | – | – | – | – | – | – | – | – | –
manganese chloride [MnCl2] | – | – | – | – | – | – | – | – | 0.44 | 0.74 | 1.01 | 1.22 | 1.70 | 0 | – | – | –
[Sr+2] [Sr^++, strontium ion] | does not increase the enzymatic rate of hydrolysis | 87.2% | increase the rate of enzymatic hydrolysis | 114.1% | do not significantly increase the rate of enzymatic hydrolysis | 93.8% | – | – | – | – | – | – | – | – | – | – | –
manganese acetate [MnOAc] | – | – | – | – | – | – | – | – | 0.46 | 0.74 | 1.04 | 1.28 | 1.50 | 0 | – | – | –
O=S(=O)([O-])[O-].[Mn+2] [MnSO4, manganese sulfate] | – | – | – | – | – | – | – | – | 0.50 | 0.87 | 1.12 | 1.30 | 1.58 | 0 | – | – | –
[Ca+2] [Ca^++, calcium ions] | – | 119.1% and 94.8% and 99.4% and 90.0% | increase the rate of enzymatic hydrolysis | 114.1% and 127.2% and 121.2% | increase the rate of enzymatic hydrolysis | 103.8% and 104.4% and 97.4% | 97.3 | do not have a similar effect | – | – | – | – | – | – | 83.6 | 111.8% and 105.8% and 105.0% | 108.0
[Zn+2] [Zn^++] | does not increase the enzymatic rate of hydrolysis | 100.2% | do not significantly increase the rate of enzymatic hydrolysis | 70.6% | do not significantly increase the rate of enzymatic hydrolysis | 57.3% | – | – | – | – | – | – | – | – | – | – | –
[Al+3] [Al^+++] | does not increase the enzymatic rate of hydrolysis | 95.1% | do not significantly increase the rate of enzymatic hydrolysis | 77.5% | do not significantly increase the rate of enzymatic hydrolysis | 96.2% | – | – | – | – | – | – | – | – | – | – | –
[Fe+2] [Fe^++] | does not increase the enzymatic rate of hydrolysis | 101.9% | do not significantly increase the rate of enzymatic hydrolysis | 88.7% | do not significantly increase the rate of enzymatic hydrolysis | 98.3% | 74.0 | do not have a similar effect | – | – | – | – | – | – | – | – | –
[K+] [K^+, potassium ion] | does not increase the enzymatic rate of hydrolysis | 82.8% | do not significantly increase the rate of enzymatic hydrolysis | 101.1% | increase the rate of enzymatic hydrolysis | 113.3% | – | – | – | – | – | – | – | – | – | – | –
[Na+] [Na^+] | does not increase the enzymatic rate of hydrolysis | 84.2% | do not significantly increase the rate of enzymatic hydrolysis | 95.1% | do not significantly increase the rate of enzymatic hydrolysis | 97.3% | – | – | – | – | – | – | – | – | – | – | –
